Results taken from patent US11773127B2, “Compounds and methods for treating bacterial infections” (Washington University, priority 2017, dated 2023).
Read-outs that look alike come from different tables or passages of the source.

Molecular target: T1, FmlHLD (Escherichia coli, UniProt P77588)
T1 construct: 6xHis (C); made in house; host or cells: E. coli C600, periplasm, pTRC99a
Experiment: biochemical
Format: binding, E. coli
Details: for inhibitory potency against FmlH, in words: ELISA-based competition assay; for PI100 (percent inhibition): galactoside at 100 μM, 100 µM
Experimental: Thereafter, wells were incubated with 200 μl blocking buffer (PBS+1% BSA) for 2 hours at 23° C., followed by incubation with 100 μl biotinylated FmlHLD diluted in blocking buffer to 20 μg/ml in the presence or absence of the tested compounds for 1 hr at 23° C. After washing 3× with PBS+0.05% TWEEN-20, 100 μl Streptavidin-HRP conjugate (BD Biosciences; 1:2000 dilution in blocking buffer) was added to each well for 1 hr at 23° C. After a final round of washing, plates were developed with 100 μl Tetramethylbenzidine (TMB, BD Biosciences) substrate, quenched within 1-2 min with 50 μl […], and absorbance measured at 450 nm.
Select top hit compounds and few low-scoring analogs from the virtual screening, as well as synthetic galactosides, were tested in the ELISA-based competition assay for their ability to inhibit binding of FmlHLD to ds-BSM. The ELISA assay was performed using the protocol described in Example 18. […] All compounds were tested at 100 μM; a subset was tested at 10 μM; and the strongest subset was additionally tested at 1 μM. […] Percent inhibition (PI) values are reported as the mean with standard error of the mean for galactosides tested at 100 μM (PI100), 10 μM (PI10), and 1 μM (PI1) in the ELISA-based competition assay. […] The “thio” designation indicates a sulfur linkage between the sugar and the aglycone group, the “phospho” designation indicates a phosphate group attached the C6-hydroxyl group on the sugar, and the “uro” designation indicates galacturonide as the sugar.
The ELISA assay was performed using the protocol described in Example 18. All compounds were tested at 1 μM and a subset was additionally tested at 100 nM. Average percent inhibition (PI) values are reported for compounds tested at 1 μM (PI1) and 100 nM (PI0.1).
Briefly, 1 μg bovine submaxillary mucin (Sigma) in 100 uL PBS were incubated with Immulon 4HBX 96-well plates overnight prior to treatment with 1 mU Arthrobacter ureafaciens sialidase for 1 hour at 37° C. to remove terminal sialic acid sugars. Wells were then blocked with 200 μL PBS+1% BSA for 2 hours at room temperature. Biotinylated FmlH^LD was diluted to 20 μg/mL in blocking buffer and incubated in the presence or absence of compounds serially diluted 2× down eight rows for 1 hour at room temperature. Wells were washed three times with PBS 0.05% TWEEN-20 then incubated with 100 μL of streptavidin-HRP conjugate (BD Biosciences; 1:2,000 dilution in blocking buffer) for one hour. After three additional PBS+0.05% TWEEN washes, plates were developed with 100 μL of tetramethylbenzidine (BD Biosciences) substrate and quenched with 50 μL of 1 M H2SO4. Total bound portion concentration was measured by the absorbance at 450 nm. IC50s were determined using the Graphpad Prism software.
The compounds synthesized herein were tested in the ELISA-based competition assay for their ability to inhibit binding of FmlHLD to ds-BSM. The ELISA assay was performed using the protocol described in Example 18. Compounds were tested at […], 1 μM, and 100 nM. as indicated on the table. […] ND means the corresponding value was not determined for this summary (but may be available elsewhere in the Examples).

[1] = IC50 (μM), Table 5, Gal and GalNAc inhibition of FmlH
[2] = IC50, inhibition of FmlHLD binding to ds-BSM
[3] = read-out: % Inhibition at [μM] [0.1], compound at 0.1 μM (100 nM), inhibition of FmlHLD binding to ds-BSM
[4] = read-out: % Inhibition at [μM] [1], compound at 1 μM, inhibition of FmlHLD binding to ds-BSM
[5] = read-out: PI (0.1) (average percent inhibition), compound at 100 nM, Table 4
[6] = read-out: PI(1) (average percent inhibition), compound at 1 μM, Table 4
[7] = mean with standard error of the mean
[8] = read-out: PI1 (percent inhibition), galactoside at 1 μM, mean with standard error of the mean
[9] = read-out: PI10 (percent inhibition), galactoside at 10 μM, mean with standard error of the mean
[10] = read-out: PI100 (percent inhibition), galactoside at 100 μM, mean with standard error of the mean
[11] = read-out: % Inhibition at [μM] [100], compound at 100 μM, inhibition of FmlHLD binding to ds-BSM
[12] = read-out: % Inhibition at [μM] [10], compound at 10 μM, inhibition of FmlHLD binding to ds-BSM

T1 sequence (P77588 25-182): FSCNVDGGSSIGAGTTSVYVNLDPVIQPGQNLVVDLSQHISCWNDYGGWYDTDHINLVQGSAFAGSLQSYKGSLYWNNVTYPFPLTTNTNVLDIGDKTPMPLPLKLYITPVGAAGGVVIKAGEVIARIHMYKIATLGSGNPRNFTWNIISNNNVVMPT

For `CS(=O)(=O)Nc1cccc(-c2ccccc2O[C@@H]2O[C@H](CO)[C@H](O)[C@H](O)[C@H]2O)c1` [AM2043, N-(2′-(((2S,3R,4S,5R,6R)-3,4,5-trihydroxy-6-(hydroxymethyl)tetrahydro-2H-pyran-2-yl)oxy)-[1,1′-biphenyl]-3-yl)methanesulfonamide], the “inhibitory potency against FmlH, in words” value (from here on “inhibitory potency”) was “loss in activity relative to 29β-NAc”, the IC50 [1] was 1.11 µM and the IC50 [2] was 1.11 µM. It also gave an inhibition at 0.1 µM [3] of 1.6%, an inhibition at 1 µM [4] of 49.8% and an inhibition at 0.1 µM [5] of 1.6%. It also gave an inhibition at 1 µM [6] of 49.8%.

For `Cc1ccc(O[C@@H]2O[C@H](CO)[C@H](O)[C@H](O)[C@H]2O)cc1` [Compound 8β, 4-methylphenyl β-D-galactopyranoside], the “PI100 (percent inhibition)” value [7] was 85.8 ± 0.7%, the inhibition at 1 µM [8] was 4.6 ± 7.9% and the inhibition at 10 µM [9] was 16.5 ± 3.3%. It also gave an inhibition at 100 µM [10] of 86%.

In the case of `CC(C)S[C@@H]1O[C@H](CO)[C@H](O)[C@H](O)[C@H]1O` [IPTG, isopropyl β-thiogalactoside, reference compound], the inhibition at 100 µM [11] is reported as 23.7% and the “inhibition of FmlHLD binding to ds-BSM, in words” value (soluble compound at 100 μM (0.1 mM)) is reported as “minor inhibitory activity”.

`Cc1ccccc1O[C@@H]1O[C@H](CO)[C@H](O)[C@H](O)[C@H]1O` [Compound 2β, 2-Methylphenyl α/β-D-Galactopyranoside] was tested, and the “PI100 (percent inhibition)” value [7] was 87.3 ± 3.7%, the inhibition at 1 µM [8] was 1.8 ± 5.7% and the inhibition at 10 µM [9] was 28.2 ± 1.8%. It also gave an inhibition at 100 µM [10] of 87%.

Compound `CC(=O)N[C@H]1[C@H](Oc2cccc(C)c2-c2cccc(NS(=O)(=O)N(C)C)c2)O[C@H](CO)[C@H](O)[C@@H]1O` [AM2152] has an IC50 [2] of 0.13 µM.

Work on `O=[N+]([O-])c1ccc(S[C@@H]2O[C@H](CO)[C@H](O)[C@H](O)[C@H]2O)cc1` [PNPTG, reference compound] yielded an inhibition at 10 µM [12] of 17% and an inhibition at 100 µM [11] of 72.5%.

In the case of `CC(=O)N[C@H]1[C@H](Oc2ccccc2-c2cccc(C#N)c2)O[C@H](CO)[C@H](O)[C@@H]1O` [AM2035, N-((2S,3R,4R,5R,6R)-2-((3′-cyano-[1,1′-biphenyl]-2-yl)oxy)-4,5-dihydroxy-6-(hydroxymethyl)tetrahydro-2H-pyran-3-yl)acetamide], the “inhibitory potency” value is reported as “equal or slightly reduced potency”, the IC50 [1] is reported as 0.97 µM and the inhibition at 1 µM [4] is reported as 20.9%. It also gave an inhibition at 1 µM [6] of 20.9%.

Work on `OC[C@H]1O[C@H](Oc2cccc(-c3ccccc3)c2)[C@H](O)[C@@H](O)[C@H]1O` [Compound 31α, [1,1′-biphenyl]-3-yl α/β-D-galactopyranoside] yielded an inhibition at 100 µM [10] of 45.6 ± 2.5%.

For `O=c1ccc2nc3ccc(O[C@@H]4O[C@H](CO)[C@H](O)[C@H](O)[C@H]4O)cc3oc-2c1` [Compound 15β, Resorufin galactoside], the “PI100 (percent inhibition)” value [7] was 80.4 ± 6.6%, the inhibition at 10 µM [9] was 24 ± 3.2% and the inhibition at 100 µM [10] was 80%.

For `Cc1ccccc1O[C@@H]1O[C@H](CO)[C@H](O)[C@H](O)[C@H]1O` [Compound 135b], the inhibition at 1 µM [4] was 1.81%, the inhibition at 10 µM [12] was 28.2% and the inhibition at 100 µM [11] was 87.3%.

With `CC(=O)N[C@H]1[C@H](Oc2ccc3cnccc3c2)O[C@H](CO)[C@H](O)[C@@H]1O` [AM2007, N-((2S,3R,4R,5R,6R)-4,5-dihydroxy-6-(hydroxymethyl)-2-(isoquinolin-6-yloxy)tetrahydro-2H-pyran-3-yl)acetamide] the inhibition at 1 µM [4] was 12.6% and the inhibition at 1 µM [6] was 12.6%.

`OC[C@H]1O[C@@H](Oc2ccccc2-c2ccccc2)[C@H](O)[C@@H](O)[C@H]1O` [Compound 113f2] gave an inhibition at 1 µM [4] of 8.1%, an inhibition at 10 µM [12] of 31% and an inhibition at 100 µM [11] of 91.1%.

`Cc1cccc(O[C@@H]2O[C@H](CO)[C@H](O)[C@H](O)[C@H]2NS(C)(=O)=O)c1-c1cccc(NS(C)(=O)=O)c1` [Compound 3089, N-((2S,3R,4R,5R,6R)-4,5-dihydroxy-6-(hydroxymethyl)-2-((6-methyl-3′-(methylsulfonamido)-[1,1′-biphenyl]-2-yl)oxy)tetrahydro-2H-pyran-3-yl)methanesulfonamide] showed an IC50 (IC50 (μM), Table 6, sulfonamides 3078-3090) of 3.5 µM.

With `CC(=O)N[C@H]1[C@H](Oc2cccc(C#N)c2-c2cccc(NS(C)(=O)=O)c2)O[C@H](CO)[C@H](O)[C@@H]1O` [AM2107] the IC50 [2] was 0.109 µM.

With `OC[C@H]1O[C@@H](Oc2cccc3ccncc23)[C@H](O)[C@@H](O)[C@H]1O` [EXW020a] the inhibition at 100 µM [11] was 15.2%.

With `COC(=O)c1cccc(-c2ccccc2O[C@@H]2O[C@H](CO)[C@H](O)[C@H](O)[C@H]2O)c1` [Compound 116f] the inhibition at 1 µM [4] was 3.7%, the inhibition at 10 µM [12] was 22.4% and the inhibition at 100 µM [11] was 86.6%.

For `CC(=O)N[C@H]1[C@H](Oc2ccc3ncccc3c2)O[C@H](CO)[C@H](O)[C@@H]1O` [AM1184, N-((2S,3R,4R,5R,6R)-4,5-dihydroxy-6-(hydroxymethyl)-2-(quinolin-6-yloxy)tetrahydro-2H-pyran-3-yl)acetamide], the inhibition at 1 µM [4] was 7.56% and the inhibition at 1 µM [6] was 7.56%.

For `CC1=CC(=O)Cc2c1cc(F)c(O[C@@H]1O[C@H](CO)[C@H](O)[C@H](O)[C@H]1O)c2F` [DiF-MUG, reference compound], the inhibition at 10 µM [12] was 0.85% and the inhibition at 100 µM [11] was 49.7%.

For `COc1ccc(OS(C)(=O)=O)cc1-c1ccccc1O[C@@H]1O[C@H](CO)[C@H](O)[C@H](O)[C@H]1NC(C)=O` [AM2077, 2′-(((2S,3R,4R,5R,6R)-3-acetamido-4,5-dihydroxy-6-(hydroxymethyl)tetrahydro-2H-pyran-2-yl)oxy)-6-methoxy-[1,1′-biphenyl]-3-yl methanesulfonate], the “inhibitory potency” value was “equal or slightly reduced potency”, the IC50 [1] was 3.72 µM and the inhibition at 0.1 µM [3] was 2.5%. It also gave an inhibition at 1 µM [4] of 0%, an inhibition at 0.1 µM [5] of 2.5% and an inhibition at 1 µM [6] of 0%.

`CC(=O)N[C@H]1[C@H](Oc2cccc(C(F)(F)F)c2-c2cccc(NS(C)(=O)=O)c2)O[C@H](CO)[C@H](O)[C@@H]1O` [AM2134] gave an IC50 [2] of 0.085 µM.

In the case of `CC(=O)N[C@H]1[C@H](Oc2cccc3ccncc23)O[C@H](CO)[C@H](O)[C@@H]1O` (stereo in doubt) [AM1186], the inhibition at 1 µM [4] is reported as 23.5% and the inhibition at 1 µM [6] is reported as 23.5%.

In the case of `Nc1ccc(O[C@@H]2O[C@H](CO)[C@H](O)[C@H](O)[C@H]2O)cc1` [Compound 10β], the “PI100 (percent inhibition)” value [7] is reported as 65.1 ± 1.4%, the inhibition at 10 µM [9] is reported as 9.8 ± 3.9% and the inhibition at 100 µM [10] is reported as 65%.

In the case of `OC[C@H]1O[C@@H](Oc2ccccc2Cl)[C@H](O)[C@@H](O)[C@H]1O` [Compound 6β, 2-chlorophenyl β-D-galactopyranoside], the “PI100 (percent inhibition)” value [7] is reported as 90.5 ± 0.6%, the inhibition at 1 µM [8] is reported as 8 ± 4% and the inhibition at 10 µM [9] is reported as 20.7 ± 5.5%. For the same compound, the inhibition at 100 µM [10] was 90%.

In the case of `Cc1ccccc1O[C@H]1O[C@H](CO)[C@H](O)[C@H](O)[C@H]1O` [Compound 135a], the inhibition at 100 µM [11] is reported as 30%.

Work on `Nc1ccc(O[C@@H]2O[C@H](CO)[C@H](O)[C@H](O)[C@H]2O)cc1` [4-amino-phenyl Gal, reference compound] yielded an inhibition at 10 µM [12] of 9.8% and an inhibition at 100 µM [11] of 65.1%.

With `CC(=O)N[C@@H]1[C@H](Oc2ccccc2-c2cc(C(=O)O)cc([N+](=O)[O-])c2)OC(CO)[C@H](O)[C@@H]1O` (stereo partly drawn) [Compound 3029, 2′-(((2S,3S,4R,5R)-3-acetamido-4,5-dihydroxy-6-(hydroxymethyl)tetrahydro-2H-pyran-2-yl)oxy)-5-nitro-[1,1′-biphenyl]-3-carboxylic acid] the IC50 [1] was 2.2 µM.
